Measured values from patent US20260027071A1, “COMPOSITION FOR PROMOTING COLLAGEN PRODUCTION COMPRISING AMIDATED AMINO ACID” (KYUNGPOOK NATIONAL UNIVERSITY INDUSTRY-ACADEMIC COOPERATION …, priority 2022, published 2026).
“Also recorded” adds a separate entry of the source.

How the values were obtained:
[1] = system: human articular chondrocytes (HAC); assay: Cell viability / proliferation (MTT assay) in human articular chondrocytes; assay type: cell-based; details: for cell viability compared to the control group: concentration series (FIGS. 13g to 13l)
Protocol: The cell viability was evaluated using the MTT assay.

[2] = system: Human dermal fibroblasts (HDF); assay: Collagen protein in conditioned media (Sircol Collagen Assay) of human dermal fibroblasts; assay type: cell-based; details: for collagen production (collagen levels secreted into the media): HDF treated at 1 mM, result in words
Protocol: (§1) The collagen protein levels in the conditioned media were evaluated using the Sircol™ Collagen Assay (Biocolor, Antrim, UK) according to the manufacturer's instructions. […] After discarding the media, the cells were washed with 500 μL of phosphate-buffered saline (PBS), then incubated in 1 mL of serum-free media for another 24 hours. A 1.0 mL media sample (either conditioned media or fresh media as a negative control) was transferred to a microcentrifuge tube, mixed with 100 μL of collagen isolation and concentration reagent, and incubated overnight at 4° C. The samples were centrifuged at 13,000×g for 10 minutes at 4° C., and the supernatant was carefully removed using a pipette without disturbing the pellet. Each tube was then added with 500 μL of Sircol dye reagent, inverted five times, and shaken at room temperature for 30 minutes. After centrifugation, the supernatant was discarded, and the pellet was washed with 500 μL of cold acid-salt washing reagent, followed by another centrifugation step. The pellet was then dissolved in 250 μL of alkali reagent, and a 200 μL portion was transferred to a 96-well plate. The optical density of the solution was read at 555 nm using a Spectrostar Nano microplate reader (BMG LABTECH GmbH, Ortenberg, Germany).

[3] = system: human aortic endothelial cells (HAoEC); assay: Collagen protein (Sircol Collagen Assay) in human aortic endothelial cells; assay type: cell-based; details: 1 mM
Protocol: as §1

[4] = system: Human dermal fibroblasts (HDF); assay: Cell viability / proliferation (MTT assay) in human dermal fibroblasts; details: for cell proliferation (MTT reduction): concentration series (FIGS. 13a to 13f)
Protocol: (§2) Human dermal fibroblasts (HDF) extracted from adult skin were obtained from Cascade Biologics (Portland, OR, USA), and human articular chondrocytes (HAC), human follicle dermal papilla cells (HFCPC), human aortic endothelial cells (HAoEC), and human osteoblasts (HOB) were obtained from PromoCell (Heidelberg, Germany). The cells were cultured in a closed incubator at 37° C. in humidified air comprising 5% CO2. The growth medium for HDF consisted of Iscove's Modified Dulbecco's Medium (IMDM) (Gibco BRL, Grand Island, NY, USA) supplemented with 10% fetal bovine serum (Hyclone, South Logan, UT) and 1% antibiotics (100 U·mL^−1 penicillin, 0.1 mg·mL^−1 streptomycin).
(§3) The cell viability was evaluated using the MTT assay. Briefly, HDF (1×10^4 cells per well), HAC (5×10^3 cells per well), HFDPC (1×10^4 cells per well), HAoEC (5×10^3 cells per well), and HOB (2×10^3 cells per well) were cultured in growth media in a 96-well culture plate for 24 hours, followed by treatment with each drug for 48 hours. After discarding the media, the cells were incubated at 37° C. for 2 hours in fresh growth media (100 μL) containing 1 mg·mL^−1 MTT (Amresco, Solon, OH, USA). The media was removed by aspiration, and the formazan dye accumulated inside the cells was dissolved in 100 μL of dimethyl sulfoxide. The absorbance of the solution was measured at 570 nm using a Spetrostar Nano microplate reader (BMG LABTECH GmbH, Ortenberg, Germany).

[5] = system: human osteoblasts (HOB); assay: Collagen protein (Sircol Collagen Assay) in human osteoblasts; assay type: cell-based; details: 1 mM
Protocol: as §1

[6] = system: human follicle dermal papilla cells (HFCPC); assay: Collagen protein (Sircol Collagen Assay) in human follicle dermal papilla cells; assay type: cell-based; details: 1 mM
Protocol: as §1

[7] = system: human articular chondrocytes (HAC); assay: Collagen protein (Sircol Collagen Assay) in human articular chondrocytes; assay type: cell-based; details: for increase in collagen production compared to the control: absence of TGF-β1
Protocol: as §1

[8] = system: human dermal fibroblasts; assay: Wound healing (wound closure) assay, Oris cell migration kit; assay type: cell-based; details: HDF
Protocol: Wound closure analysis was performed using the Oris™ Universal Cell Migration Assembly kit (Platinus Technologies, WI, USA) according to the manufacturer's instructions. The Oris™ stoppers were inserted into each well of the Oris™-compatible 96-well plate, and the plate was inverted to check for complete stopper attachment. A suspension of human dermal fibroblasts in IMDM was added to each well (1×10^4 cells in 100 μL per well) and incubated for 12 hours to allow cell attachment. Then, the stoppers were removed using the stopper tool, and the medium was aspirated using a pipette. The wells were gently washed with 100 μL PBS to remove unattached cells, and the attached cells were treated with drugs in 100 μL culture medium for the specified time, respectively. Images of the wounds were obtained using a phase-contrast microscope (Eclipse TS 100, Nikon Instruments Inc., Melville, NY, USA). The wound areas in the images were quantified using the NIH Image J program. Wound closure (%) was calculated using the following equation: Wound closure (%)=[(A0−At)/A0]×100, where A0 is the area of the original wound and At is the wound area measured at the specified time.

[9] = system: Human dermal fibroblasts (HDF); details: 48 h
Protocol: as §2, §3

[10] = HDF, 1 mM each, absence of TGF-β1 (FIG. 5a)
[11] = HDF, concentration series (FIGS. 13a to 13f)

Question: What does the source list for `Cl.NCC(N)=O` [glycinamide, Glycinamide HCl]?
Answer: cell viability compared to the control group ([1]; HAC): slightly but significantly increased cell viability; collagen production (collagen levels secreted into the media) ([2]; HCl): most effective; also recorded: highest collagen production-promoting effect; collagen production (collagen levels secreted into the media) ([2]; listed as glycylamine, HCl): superior collagen-promoting effect compared to all free amino acids; change in collagen production, individual treatment ([2]; HDF, 100 μM): 27.2%; increase in collagen production compared to the control ([2]; HDF, 0.5 mM, absence of TGF-β1): 139.2%; change in collagen production, individual treatment ([2]; HDF, 1000 μM): 75.7%; increase in collagen production compared to the control [2, 10]: 68.2%; change in collagen production induced by individual treatment ([2]; HDF, FIG. 7b, concentration not given): 67.4%; collagen production [2, 11]: increased collagen production in a concentration-dependent manner; collagen production [3]: most effective among the amidated amino acids; cell viability ([4]; HDF treated at 1 mM, result in words): no significant change in cell viability; cell proliferation (MTT reduction) ([4]; HDF): did not affect cell proliferation; collagen production [5]: most effective among the amidated amino acids; collagen production effect [5]: 433.8%; collagen production [6]: most effective among the amidated amino acids; collagen production ([7]; 0.5 mM): enhancing collagen production; increase in collagen production compared to the control ([7]; 0.5 mM): 181.3%; collagen production ([7]; 1 mM): most effective among the amidated amino acids; increase in collagen production (greatest effect) ([7]; 2 mM): 238.6%; change in wound closure induced by treatment ([8]; 24 hours after treatment): 19.2%; change in wound closure induced by treatment ([8]; after 12 hours of treatment): 6.3%; wound closure ([8]; treated alone, up to 48 hours (FIG. 8b)): promoted wound closure

Question: What does the source list for `Cl.N[C@H]1C(O)O[C@H](CO)[C@@H](O)[C@@H]1O` (stereo partly drawn) [glucosamine, glucosamine HCl, reference compound]?
Answer: cell viability ([1]; HAC, 0.5 mM): without affecting cell viability; increase in collagen production compared to the control ([2]; HDF, 0.5 mM, absence of TGF-β1): 118.6%; collagen production [2, 11]: increased collagen production; cell proliferation (MTT reduction) ([4]; HDF): did not affect cell proliferation; collagen production ([7]; 0.5 mM): increased collagen production; increase in collagen production compared to the control ([7]; 0.5 mM): 147.6%

Question: How did the “concentrations with no effect on cell viability” value [9] turn out when `O=C1O[C@H]([C@@H](O)CO)C(O)=C1O` [ascorbic acid, reference compound] was run?
Answer: Its value is ≤ 1000 µM.

Question: And the “collagen production (collagen levels secreted into the media)” value [2]?
Answer: The value was “increased collagen production”.

Question: And the “increase in collagen production compared to the control” value [2, 10]?
Answer: The value was 23.1%.

Question: What about the collagen production ([2]; HDF, 3 and 5 mM) of the same compound?
Answer: Its collagen production is “significantly reduced”.

Question: And the “concentrations at which collagen production increased” value ([2]; HDF, non-cytotoxic concentrations (FIG. 10b))?
Answer: The value was 10 to 1000 µM.

Question: And the “change in wound closure induced by treatment” value ([8]; 24 hours after treatment)?
Answer: Its value is 9.1%.

Question: And the “change in wound closure induced by treatment” value ([8]; after 12 hours of treatment)?
Answer: Its value is 2.5%.

Question: What does the source list for “TGF-β1: Recombinant human TGF-β1 protein purchased from R&D Systems”?
Answer: cell proliferation compared to the control ([1]; HAC (FIGS. 14a to 14d)): better cell proliferation compared to the control; cell viability compared to the control group ([1]; HAC): slightly but significantly increased cell viability; collagen production ([2]; HDF, TGF-β1 10 ng mL^−1 alone): effect of enhancing collagen production; collagen production [2, 11]: collagen production enhancement effect that surpassed its cell proliferation effect; cell proliferation compared to the control ([4]; HDF (FIGS. 14a to 14d)): better cell proliferation compared to the control; cell proliferation (MTT reduction) ([4]; HDF): increased the proliferation; increase in number of viable cells compared to the control ([4]; HDF, TGF-β1 10 ng mL^−1, or ascorbic acid 1 mM + glycinamide 1 mM (FIG. 5b)): 44.5%; collagen production ([7]; TGF-β1 10 ng mL^−1 alone): effect of enhancing collagen production; collagen production ([7]; TGF-β1 up to 10 ng mL-1): improved collagen production in a dose-dependent manner; wound closure compared to the control ([8]; 12 and 24 hours post-treatment): significantly improved wound closure
